Measured values from article PMC6426982, “Anti-alcohol abuse drug disulfiram inhibits human PHGDH via disruption of its active tetrameric form through a specific cysteine oxidation” (Scientific Reports, 2019).
Numbering of substitutions follows the chain as printed. Like-named read-outs stand apart in the source and are kept apart here.

Columns and labels:
[1] = target: T1, human PHGDH (wild type) (Homo sapiens, UniProt O43175); test: PHGDH isolated enzyme inhibition assay (NADH fluorescence), wild type; assay type: biochemical
T1 construct: peptides including 12 out of the 13 Cys residues of the full length PHGDH could be identified and tracked; made in house; host or cells: Escherichia coli BL21
T1 sequence (O43175 1-533): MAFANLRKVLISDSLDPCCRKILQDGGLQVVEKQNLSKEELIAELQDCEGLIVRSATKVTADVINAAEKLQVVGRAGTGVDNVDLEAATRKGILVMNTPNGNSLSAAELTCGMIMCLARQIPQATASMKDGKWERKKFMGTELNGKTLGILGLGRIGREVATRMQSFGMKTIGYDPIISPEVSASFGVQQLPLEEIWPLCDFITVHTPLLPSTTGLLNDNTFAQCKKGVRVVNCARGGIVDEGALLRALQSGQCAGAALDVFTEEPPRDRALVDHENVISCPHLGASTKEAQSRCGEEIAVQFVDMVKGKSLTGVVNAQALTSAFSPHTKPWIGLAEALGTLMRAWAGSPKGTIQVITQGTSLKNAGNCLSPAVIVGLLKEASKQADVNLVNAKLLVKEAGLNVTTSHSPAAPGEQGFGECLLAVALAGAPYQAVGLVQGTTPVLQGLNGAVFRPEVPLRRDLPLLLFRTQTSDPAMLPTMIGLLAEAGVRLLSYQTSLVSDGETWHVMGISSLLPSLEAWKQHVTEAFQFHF
Procedure: Enzymatic assay was adapted from a previously described procedure. […] Assays were performed in PHGDH assay buffer (50 mM Tris, pH 8.5, and 1 mM EDTA). […] The final concentration of DMSO in the assay mixture was set to 5%.
pET28a human PHGDH and pET28a human C116S PHGDH were transformed into BL21 Escherichia coli. A single colony was grown to an OD600 0.6 in 1 L of Luria broth. Protein expression was induced with 1 mM isopropyl thiogalactopyranoside (IPTG). […] Pellets were resuspended in 60 mL of lysis buffer (50 mM Tris, pH 8.5, 10 mM MgCl2, 300 mM NaCl, 10% glycerol, 5 mM imidazole) and sonicated, and cell debris were pelleted by centrifugation (20,000 × g, 30 min). The supernatant was collected and purified using Akta purifier on HisTrap^TM FF column (GE Healthcare). […] Fraction protein content was measured via a Bradford assay. […] Protein purity was assessed via SDS/PAGE and Coomassie staining.

[2] = system: UM-UC-3-PHGDH+ cells; test: Cell proliferation inhibition (Presto Blue), PHGDH-expressing cells; assay type: cell-based, human
Procedure: (§1) UM-UC-3 (PHGDH+ and PHGDH-) bladder cancer cells were purchased from the ATCC and cultured in DMEM medium supplemented with 10% heat-inactivated Fetal Bovine Serum (FBS) and 1% penicillin/streptomycin. Cells were seeded at 2500 cells/well in 96-well plates in serine depleted media (MEM). DSF or vehicle (DSMO) was added and cells were grown for 48 hours. Viability was assessed using Presto Blue reagent (Life Technologies) according to manufacturer’s instructions.

[3] = target: T2, PHGDH (Homo sapiens, UniProt O43175); test: Incubation assay (time-dependent PHGDH inhibition); assay type: biochemical; details: DSF 50 µM, 45 min incubation, 37 °C, Fig. 1A; read-out: PHGDH inhibition after incubation
T2 construct: peptides including 12 out of the 13 Cys residues of the full length PHGDH could be identified and tracked; made in house; host or cells: Escherichia coli BL21
T2 sequence (O43175 1-533): T1 sequence (O43175 1-533)
Procedure: (§2) Figure 1 Characterization of PHGDH inhibition by DSF. Residual activity percentage of PHGDH (A) upon incubation with DSF (50 µM) for the indicated times and (B) after the rapid dilution assay experiment with DSF (50 µM). All experiments values were performed in triplicates at each compound dilution and error bars show the standard deviation. Data were collected at 37 °C with a PHGDH concentration of 12 ng/µL in 50 mM Tris and 1 mM EDTA at pH 8.5.
(§3) Enzymatic assay was adapted from a previously described procedure. NADH fluorescence emission (Ex 340 nm/Em 460 nm) was followed over time. Assays were performed in PHGDH assay buffer (50 mM Tris, pH 8.5, and 1 mM EDTA). Substrates and enzyme concentrations were as follows: 3-PG, 240 μM; NAD^+, 120 μM; glutamate, 30 mM; PHGDH, 12 ng/μL; PSAT1, 20 ng/μL. The final concentration of DMSO in the assay mixture was set to 5%.

[4] = target: T3, PHGDH cysteine residues (Homo sapiens, UniProt O43175); test: nanoUHPLC/MS of tryptic PHGDH peptides after DSF treatment (cysteine modification)
T3 construct: peptides including 12 out of the 13 Cys residues of the full length PHGDH could be identified and tracked; made in house; host or cells: Escherichia coli BL21
T3 sequence (O43175 1-533): T1 sequence (O43175 1-533)
Procedure: To unambiguously confirm this hypothesis and possibly identify the cysteine residues involved in this interaction, mass spectrometry experiments were undertaken. Briefly, PHGDH was incubated for 30 min with various concentrations of disulfiram (0.1x IC50, 1x IC50 and 10x IC50). At the end of the incubation, chloroacetamide was added and incubated 15′ in large excess in order to block the remaining free cysteines residues for the following analysis. The protein was separated from the medium (removal of the remaining chloroacetamide and DSF by liquid/liquid extraction with CHCl3/H2O) followed by trypsinization and analysis of the peptides by nanoUHPLC/MS.
Mass spectrometry experiments were carried out on an Orbitrap Lumos, following a previously reported procedure, with some modifications. A local protein database containing the human PHGDH sequence (accession Uniprot O43175) was used to process the obtained MS/MS data. Mass error was set to 15 ppm for precursor ions and 0.6 Da for fragment ions. Oxidation on Met; disulfiram, (+147.025 Da) and carbamidomethyl (+57.021 Da) were considered as variable modifications on Cys.

[5] = system: UM-UC-3-PHGDH- cells; test: Cell proliferation inhibition (Presto Blue), cells not expressing PHGDH; assay type: cell-based; details: Homo sapiens, UMUC3, serine depleted media, 48 hours
Procedure: as §1

[6] = cited from earlier work
[7] = target: T1, human PHGDH (wild type); parameters: method as in PMID 28085281; details: drug screening campaign in the authors' lab; cited from earlier work
[8] = target: T2, PHGDH; test: Cross-linking experiment with BS3 (oligomeric state); details: DSF 1-500 µM, 30 min, BS3 cross-linker
Procedure: PHGDH (3 μg) was incubated with DSF (1 µM, 5 µM, 10 µM, 50 μM, 100 μM, 250 µM, 500 μM) or vehicle control (DMSO) in 25 mM HEPES, pH 7.3, and 1 mM NAD^+ in 18 μL total volume for 30 min on ice. BS3 (S5799; Sigma) cross-linker dissolved in PBS was added to a final concentration of 5 mM and incubated for 30 min under shaking at room temperature. The reaction was then quenched for 15 min by adding 1 M Tris, pH 7.5, to a final concentration of 28 mM. Cross-linked proteins were mixed with sample buffer, boiled for 5 min, and run on SDS/PAGE. Gels were stained with Gelcode blue stain reagent (24592; Thermo) overnight and destained according to the manufacturer’s instructions.

[9] = target: T2, PHGDH; test: Rapid dilution assay; assay type: biochemical; details: DSF 50 µM (Fig. 1B)
Procedure: as §2
Dilution experiment was conducted following a reported procedure. DSF (5 μM) or DMSO control was incubated with PHGDH for 45 min at 37 °C. Undiluted DSF (5 μM) was included as a positive control for inhibition.

[10] = target: T4, human PHGDH C116S mutant (Homo sapiens, UniProt O43175, C116S); test: PHGDH enzyme inhibition assay, C116S mutant; assay type: biochemical
T4 construct: peptides including 12 out of the 13 Cys residues of the full length PHGDH could be identified and tracked; made in house; host or cells: Escherichia coli BL21
T4 sequence (O43175 1-533 C116S): T1 sequence (O43175 1-533) with C116S
Procedure: as §3
pET28a human PHGDH and pET28a human C116S PHGDH were transformed into BL21 Escherichia coli. A single colony was grown to an OD600 0.6 in 1 L of Luria broth. Protein expression was induced with 1 mM isopropyl thiogalactopyranoside (IPTG). The culture was chilled on ice for 30 min, cultured for 18 h at room temperature and pelleted (6,000 g, 20 min). Pellets were resuspended in 60 mL of lysis buffer (50 mM Tris, pH 8.5, 10 mM MgCl2, 300 mM NaCl, 10% glycerol, 5 mM imidazole) and sonicated, and cell debris were pelleted by centrifugation (20,000 × g, 30 min). The supernatant was collected and purified using Akta purifier on HisTrap^TM FF column (GE Healthcare). […] Fraction protein content was measured via a Bradford assay. […] Protein purity was assessed via SDS/PAGE and Coomassie staining.

For `CCN(CC)C(=S)[S][Cu][S]C(=S)N(CC)CC` [CuET, bis(diethyldithiocarbamate)–copper], which IC50 ([1]; wild type PHGDH 12 ng/µL, 37 °C, pH 8.5, Fig. 2, read-out: PHGDH inhibition (IC50)) is on record?
The IC50 was roughly 10000 nM.

And the “fold weaker IC50 compared to DSF” value ([1]; wtPHGDH)?
The value was “about 16 fold”.

With `CCN(CC)C(=S)SSC(=S)N(CC)CC` [DSF, bis(diethylthiocarbamoyl) disulfide] as the compound, how does the IC50 ([2]; Homo sapiens, UMUC3, 48 h, UM-UC-3 +PHGDH, serine depleted media, 48 hours) read?
The IC50 was 775 nM.

And the “difference in proliferation IC50 between PHGDH- and PHGDH+ cells” value ([2]; UM-UC-3-PHGDH- versus UM-UC-3-PHGDH+)?
Its value is ~ 5 fold.

And the inhibition at 50 µM [3]?
The inhibition at 50 µM was 100%.

What about the “Percentage of modified peptides, C111” value ([4]; DSF 0.05 µM, peptide 91-119) of the same compound?
The value was 4.87%.

What about the “Percentage of modified peptides, C116” value ([4]; DSF 0.05 µM, peptide 91-119) of the same compound?
Its value is 9.75%.

And the “Percentage of modified peptides, C111” value ([4]; DSF 0.05 µM, peptide 92-119)?
Its value is 1.92%.

What about the “Percentage of modified peptides, C116” value ([4]; DSF 0.05 µM, peptide 92-119) of the same compound?
Its value is 7.69%.

What about the “Percentage of modified peptides, C116” value ([4]; DSF 0.5 µM, peptide 91-119 (Ox M)) of the same compound?
Its value is 7.14%.

What about the “Percentage of modified peptides, C111” value ([4]; DSF 0.5 µM, peptide 92-119) of the same compound?
Its value is 6.67%.

What about the “Percentage of modified peptides, C116” value ([4]; DSF 0.5 µM, peptide 92-119) of the same compound?
The value was 46.67%.

What about the “Percentage of modified peptides, C111” value ([4]; DSF 5 µM, peptide 91-119) of the same compound?
Its value is 4.16%.

And the “Percentage of modified peptides, C116” value ([4]; DSF 5 µM, peptide 91-119)?
Its value is 50.00%.

And the “Percentage of modified peptides, C111” value ([4]; DSF 5 µM, peptide 92-119)?
The value was 10.34%.

What about the “Percentage of modified peptides, C116” value ([4]; DSF 5 µM, peptide 92-119) of the same compound?
The value was 39.65%.

And the “Percentage of modified peptides, C281” value ([4]; DSF 5 µM, peptide 271-289)?
The value was 1.26%.

And the IC50 [5]?
The IC50 was 3.64 µM.

And the Cmax ([6]; reported, read-out: maximum plasma concentration (Cmax))?
The Cmax was 1280 nM.

And the elimination half-life ([6]; single-dose administration of 250 mg of DSF)?
Its elimination half-life is 7.3 h.

And the IC50 ([1]; Wild Type PHGDH, Table 2, read-out: PHGDH inhibition (IC50))?
The IC50 was 590 nM.

What about the IC50 ([1]; purified PHGDH, triplicates, Table 1, read-out: PHGDH inhibition (IC50)) of the same compound?
The IC50 was 590 nM.

What about the IC50 ([1]; with Triton X 0.01%, Fig. S1B, read-out: IC50 on PHGDH WT) of the same compound?
Its IC50 is 490 nM.

What about the IC50 ([1]; without Triton X, Fig. S1A, read-out: IC50 on PHGDH WT) of the same compound?
Its IC50 is 530 nM.

What about the IC50 [7] of the same compound?
Its IC50 is 590 nM.

And the “oligomeric state of PHGDH after DSF treatment” value [8]?
The value was “concentration-dependent shift from the tetrameric to the dimeric, and to a lesser extent to the monomeric, form”.

What about the “PHGDH activity after rapid dilution of the enzyme/inhibitor complex” value [9] of the same compound?
The value was “not restored”.

What about the “decrease in inhibitory potency on C116S mutant versus wild type enzyme” value [10] of the same compound?
Its value is 20 fold.

And the IC50 ([10]; C116S mutant, Table 2)?
Its IC50 is 10.2 µM.
